Test results taken from the kinase profiling compilation of Christmann-Franck et al. (2016).

How the values were obtained:
Assay in all cases: KINOMEscan competition binding
DAPK3 (human) = DAPK3 (human) (UniProt O43293)
AURKC (human) = AURKC (human) (UniProt Q9UQB9)
[1] = test system: PIK3CA (human), P42336 [E545A]
HIPK1 (human) = HIPK1 (human) (UniProt Q86Z02)
ACVRL1 (human) = ACVRL1 (human) (UniProt P37023)
RPS6KA4 KD2 (human) = RPS6KA4 KD2 (human) (UniProt O75676)
CSNK1A1 (human) = CSNK1A1 (human) (UniProt P48729)
MAP4K1 (human) = MAP4K1 (human) (UniProt Q92918)
[2] = test system: KIT (human), P10721 [L576P]
RIOK1 (human) = RIOK1 (human) (UniProt Q9BRS2)
PAK3 (human) = PAK3 (human) (UniProt O75914)
GRK1 (human) = GRK1 (human) (UniProt Q15835)
AURKB (human) = AURKB (human) (UniProt Q96GD4)
ERN1 (human) = ERN1 (human) (UniProt O75460)
NEK6 (human) = NEK6 (human) (UniProt Q9HC98)
CAMK1G (human) = CAMK1G (human) (UniProt Q96NX5)
AKT1 (human) = AKT1 (human) (UniProt P31749)
SIK1 (human) = SIK1 (human) (UniProt P57059)
PAK4 (human) = PAK4 (human) (UniProt O96013)
IKBKE (human) = IKBKE (human) (UniProt Q14164)
CSNK1G1 (human) = CSNK1G1 (human) (UniProt Q9HCP0)
STK16 (human) = STK16 (human) (UniProt O75716)
PIK3C2B (human) = PIK3C2B (human) (UniProt O00750)
MELK (human) = MELK (human) (UniProt Q14680)
PIK3CB (human) = PIK3CB (human) (UniProt P42338)
DMPK (human) = DMPK (human) (UniProt Q09013)
PKMYT1 (human) = PKMYT1 (human) (UniProt Q99640)
PRKG2 (human) = PRKG2 (human) (UniProt Q13237)
PRKCE (human) = PRKCE (human) (UniProt Q02156)
PLK4 (human) = PLK4 (human) (UniProt O00444)
CDK4 CCND3 (human) = CDK4 CCND3 (human) (UniProt P11802+P30281)
RIPK4 (human) = RIPK4 (human) (UniProt P57078)
PRKX (human) = PRKX (human) (UniProt P51817)
[3] = test system: KIT (human), P10721 [D816V]
SBK1 (human) = SBK1 (human) (UniProt Q52WX2)
SIK2 (human) = SIK2 (human) (UniProt Q9H0K1)
PRKD1 (human) = PRKD1 (human) (UniProt Q15139)
PIK3CG (human) = PIK3CG (human) (UniProt P48736)
PTK6 (human) = PTK6 (human) (UniProt Q13882)
CDKL5 (human) = CDKL5 (human) (UniProt O76039)
NEK3 (human) = NEK3 (human) (UniProt P51956)
NEK7 (human) = NEK7 (human) (UniProt Q8TDX7)

PRKX (human), sequence (P51817 whole entry, looked up): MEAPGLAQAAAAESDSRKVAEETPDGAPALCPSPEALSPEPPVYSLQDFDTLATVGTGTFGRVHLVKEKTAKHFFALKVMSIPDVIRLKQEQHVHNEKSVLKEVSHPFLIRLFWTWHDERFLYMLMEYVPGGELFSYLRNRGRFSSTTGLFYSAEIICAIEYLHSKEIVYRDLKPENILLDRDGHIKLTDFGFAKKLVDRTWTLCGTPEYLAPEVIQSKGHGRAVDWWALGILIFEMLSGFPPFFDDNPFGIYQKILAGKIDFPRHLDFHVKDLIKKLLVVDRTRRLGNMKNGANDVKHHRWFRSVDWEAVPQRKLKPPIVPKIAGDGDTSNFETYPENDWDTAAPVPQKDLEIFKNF
IKBKE (human), sequence (Q14164 whole entry, looked up): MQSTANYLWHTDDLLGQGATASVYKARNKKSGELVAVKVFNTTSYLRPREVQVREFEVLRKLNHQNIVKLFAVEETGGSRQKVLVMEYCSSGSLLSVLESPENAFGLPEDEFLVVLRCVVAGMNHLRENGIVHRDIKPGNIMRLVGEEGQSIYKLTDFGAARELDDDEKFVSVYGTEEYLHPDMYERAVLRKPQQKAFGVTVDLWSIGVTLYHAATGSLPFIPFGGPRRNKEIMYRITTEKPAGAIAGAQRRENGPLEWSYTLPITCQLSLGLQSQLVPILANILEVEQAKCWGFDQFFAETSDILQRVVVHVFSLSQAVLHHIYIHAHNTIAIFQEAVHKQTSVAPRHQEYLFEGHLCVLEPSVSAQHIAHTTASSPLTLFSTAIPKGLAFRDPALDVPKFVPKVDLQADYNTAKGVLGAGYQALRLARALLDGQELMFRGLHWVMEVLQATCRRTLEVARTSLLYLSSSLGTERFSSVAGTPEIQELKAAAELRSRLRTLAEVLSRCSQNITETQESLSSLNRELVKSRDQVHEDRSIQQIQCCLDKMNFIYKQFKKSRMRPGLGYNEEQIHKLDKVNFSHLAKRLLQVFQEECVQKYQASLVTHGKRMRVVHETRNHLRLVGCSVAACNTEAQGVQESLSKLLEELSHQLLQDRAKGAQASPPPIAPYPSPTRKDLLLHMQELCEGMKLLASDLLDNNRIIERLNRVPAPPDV
DAPK3 (human), sequence (O43293 whole entry, looked up): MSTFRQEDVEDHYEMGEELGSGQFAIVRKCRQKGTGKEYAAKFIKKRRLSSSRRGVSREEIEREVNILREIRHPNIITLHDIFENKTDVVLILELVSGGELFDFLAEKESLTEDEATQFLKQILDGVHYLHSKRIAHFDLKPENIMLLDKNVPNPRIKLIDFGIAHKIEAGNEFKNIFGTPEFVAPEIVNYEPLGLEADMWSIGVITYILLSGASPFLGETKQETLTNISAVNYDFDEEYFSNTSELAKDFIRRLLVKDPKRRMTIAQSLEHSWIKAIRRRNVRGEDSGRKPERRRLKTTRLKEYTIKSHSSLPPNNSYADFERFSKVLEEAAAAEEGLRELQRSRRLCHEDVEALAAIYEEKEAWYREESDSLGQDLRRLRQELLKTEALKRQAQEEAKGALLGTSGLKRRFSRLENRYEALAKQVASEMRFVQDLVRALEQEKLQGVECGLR
PKMYT1 (human), sequence (Q99640 whole entry, looked up): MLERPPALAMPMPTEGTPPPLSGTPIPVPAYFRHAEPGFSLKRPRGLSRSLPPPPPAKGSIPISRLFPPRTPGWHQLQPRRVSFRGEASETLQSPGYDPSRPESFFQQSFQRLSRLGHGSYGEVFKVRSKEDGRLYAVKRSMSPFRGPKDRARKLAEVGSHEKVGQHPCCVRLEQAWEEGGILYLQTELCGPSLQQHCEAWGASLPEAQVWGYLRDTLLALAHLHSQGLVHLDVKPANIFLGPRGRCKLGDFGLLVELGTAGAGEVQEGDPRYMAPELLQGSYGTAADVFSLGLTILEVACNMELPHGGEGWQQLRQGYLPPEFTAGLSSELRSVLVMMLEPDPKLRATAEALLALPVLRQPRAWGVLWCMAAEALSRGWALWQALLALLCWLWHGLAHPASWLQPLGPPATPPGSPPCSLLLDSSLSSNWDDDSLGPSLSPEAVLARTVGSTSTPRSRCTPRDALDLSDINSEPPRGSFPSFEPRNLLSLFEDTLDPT
CSNK1A1 (human), sequence (P48729 whole entry, looked up): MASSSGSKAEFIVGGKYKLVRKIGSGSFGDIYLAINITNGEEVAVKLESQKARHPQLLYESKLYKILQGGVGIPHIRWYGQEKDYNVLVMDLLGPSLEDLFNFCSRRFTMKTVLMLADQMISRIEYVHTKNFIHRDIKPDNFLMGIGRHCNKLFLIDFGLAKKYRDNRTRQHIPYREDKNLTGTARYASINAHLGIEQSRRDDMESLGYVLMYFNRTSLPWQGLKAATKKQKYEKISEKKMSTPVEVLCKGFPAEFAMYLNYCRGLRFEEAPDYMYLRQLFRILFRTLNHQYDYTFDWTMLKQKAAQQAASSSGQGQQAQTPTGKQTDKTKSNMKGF
PAK3 (human), sequence (O75914 whole entry, looked up): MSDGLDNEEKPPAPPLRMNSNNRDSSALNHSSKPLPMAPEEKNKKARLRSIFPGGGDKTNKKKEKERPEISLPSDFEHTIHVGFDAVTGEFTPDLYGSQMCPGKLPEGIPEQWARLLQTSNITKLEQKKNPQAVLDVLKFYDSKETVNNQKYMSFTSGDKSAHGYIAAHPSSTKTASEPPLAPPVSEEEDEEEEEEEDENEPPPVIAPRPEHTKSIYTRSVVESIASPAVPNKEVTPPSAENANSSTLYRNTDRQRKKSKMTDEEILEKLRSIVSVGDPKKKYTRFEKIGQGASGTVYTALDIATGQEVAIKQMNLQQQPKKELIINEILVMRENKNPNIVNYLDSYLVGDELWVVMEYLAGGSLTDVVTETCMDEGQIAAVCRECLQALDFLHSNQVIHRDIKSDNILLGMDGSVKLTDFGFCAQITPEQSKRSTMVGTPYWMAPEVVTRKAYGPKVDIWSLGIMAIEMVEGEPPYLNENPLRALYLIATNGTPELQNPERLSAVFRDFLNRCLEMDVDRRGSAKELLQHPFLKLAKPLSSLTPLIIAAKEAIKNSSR
ERN1 (human), sequence (O75460 whole entry, looked up): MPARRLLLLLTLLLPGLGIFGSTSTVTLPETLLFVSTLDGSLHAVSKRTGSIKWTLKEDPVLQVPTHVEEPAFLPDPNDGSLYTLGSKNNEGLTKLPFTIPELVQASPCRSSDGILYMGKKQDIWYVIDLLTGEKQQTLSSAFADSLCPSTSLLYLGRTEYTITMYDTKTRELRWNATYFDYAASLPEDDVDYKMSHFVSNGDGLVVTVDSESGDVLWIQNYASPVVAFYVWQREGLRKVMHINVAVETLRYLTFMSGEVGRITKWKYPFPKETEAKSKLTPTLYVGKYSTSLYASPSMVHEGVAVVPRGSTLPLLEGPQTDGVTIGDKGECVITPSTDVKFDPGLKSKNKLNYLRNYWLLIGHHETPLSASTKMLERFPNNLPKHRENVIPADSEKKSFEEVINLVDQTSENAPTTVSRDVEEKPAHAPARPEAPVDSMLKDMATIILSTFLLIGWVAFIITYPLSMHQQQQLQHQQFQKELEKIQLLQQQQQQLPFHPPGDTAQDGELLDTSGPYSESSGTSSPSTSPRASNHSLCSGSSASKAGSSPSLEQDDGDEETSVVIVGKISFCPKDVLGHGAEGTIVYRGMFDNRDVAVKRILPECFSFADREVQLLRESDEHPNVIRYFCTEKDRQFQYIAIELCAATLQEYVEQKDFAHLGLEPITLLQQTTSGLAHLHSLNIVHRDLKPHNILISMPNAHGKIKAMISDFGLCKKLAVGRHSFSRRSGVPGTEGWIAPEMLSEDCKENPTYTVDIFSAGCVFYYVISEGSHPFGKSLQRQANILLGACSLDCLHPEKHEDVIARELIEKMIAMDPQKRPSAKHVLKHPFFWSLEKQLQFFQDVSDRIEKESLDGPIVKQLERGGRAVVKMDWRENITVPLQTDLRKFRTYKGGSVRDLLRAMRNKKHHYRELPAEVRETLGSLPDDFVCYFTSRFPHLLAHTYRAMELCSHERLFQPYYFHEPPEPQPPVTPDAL
PIK3CG (human), sequence (P48736 whole entry, looked up): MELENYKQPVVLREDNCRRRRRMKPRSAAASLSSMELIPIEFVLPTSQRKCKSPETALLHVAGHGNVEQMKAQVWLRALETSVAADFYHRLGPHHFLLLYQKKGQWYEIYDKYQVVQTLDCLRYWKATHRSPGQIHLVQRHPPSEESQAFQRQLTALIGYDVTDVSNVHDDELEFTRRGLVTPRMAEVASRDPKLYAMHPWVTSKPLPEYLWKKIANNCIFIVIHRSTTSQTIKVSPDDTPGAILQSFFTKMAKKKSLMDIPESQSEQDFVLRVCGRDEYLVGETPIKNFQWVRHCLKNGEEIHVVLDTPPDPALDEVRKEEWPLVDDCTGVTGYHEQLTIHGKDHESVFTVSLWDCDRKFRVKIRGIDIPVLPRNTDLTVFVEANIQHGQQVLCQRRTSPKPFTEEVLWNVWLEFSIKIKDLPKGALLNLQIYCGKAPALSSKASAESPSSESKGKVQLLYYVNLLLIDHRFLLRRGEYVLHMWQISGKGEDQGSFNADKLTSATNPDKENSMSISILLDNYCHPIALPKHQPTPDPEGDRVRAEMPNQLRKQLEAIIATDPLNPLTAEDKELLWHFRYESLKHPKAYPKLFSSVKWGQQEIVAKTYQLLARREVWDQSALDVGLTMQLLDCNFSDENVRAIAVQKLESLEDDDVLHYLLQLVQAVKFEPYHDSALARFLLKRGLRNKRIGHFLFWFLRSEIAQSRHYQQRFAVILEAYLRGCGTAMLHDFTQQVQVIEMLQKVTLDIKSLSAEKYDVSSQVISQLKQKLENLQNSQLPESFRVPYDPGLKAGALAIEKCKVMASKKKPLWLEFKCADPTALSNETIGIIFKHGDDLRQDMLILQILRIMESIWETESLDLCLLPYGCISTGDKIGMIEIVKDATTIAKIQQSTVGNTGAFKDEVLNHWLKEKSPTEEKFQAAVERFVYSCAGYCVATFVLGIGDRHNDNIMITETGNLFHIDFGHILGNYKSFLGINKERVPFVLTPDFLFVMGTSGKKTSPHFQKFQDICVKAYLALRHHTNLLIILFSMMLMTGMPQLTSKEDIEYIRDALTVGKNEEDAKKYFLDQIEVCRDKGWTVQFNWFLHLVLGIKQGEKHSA

Compound `CN(C)C/C=C/C(=O)Nc1cccc(C(=O)Nc2ccc(Nc3nccc(/C(C#N)=C4\Nc5ccccc5S4)n3)cc2)c1` has a kinase still bound, per cent of control (DAPK3 (human); compound 1.0 µM) of 100%, a kinase still bound, per cent of control (AURKC (human); compound 1.0 µM) of 76% and a kinase still bound, per cent of control ([1]; compound 1.0 µM) of 100%. The kinase still bound, per cent of control (HIPK1 (human); compound 1.0 µM) was 100%, the kinase still bound, per cent of control (ACVRL1 (human); compound 1.0 µM) was 100% and the kinase still bound, per cent of control (RPS6KA4 KD2 (human); compound 1.0 µM) was 100%. The kinase still bound, per cent of control (CSNK1A1 (human); compound 1.0 µM) was 75%, the kinase still bound, per cent of control (MAP4K1 (human); compound 1.0 µM) was 100% and the kinase still bound, per cent of control ([2]; compound 1.0 µM) was 100%. For the same compound, the kinase still bound, per cent of control (RIOK1 (human); compound 1.0 µM) was 14%, the kinase still bound, per cent of control (PAK3 (human); compound 1.0 µM) was 84% and the kinase still bound, per cent of control (GRK1 (human); compound 1.0 µM) was 100%. The kinase still bound, per cent of control (AURKB (human); compound 1.0 µM) was 83%, the kinase still bound, per cent of control (ERN1 (human); compound 1.0 µM) was 100% and the kinase still bound, per cent of control (NEK6 (human); compound 1.0 µM) was 100%. The kinase still bound, per cent of control (CAMK1G (human); compound 1.0 µM) was 100%, the kinase still bound, per cent of control (AKT1 (human); compound 1.0 µM) was 6.6% and the kinase still bound, per cent of control (SIK1 (human); compound 1.0 µM) was 100%. It also gave a kinase still bound, per cent of control (PAK4 (human); compound 1.0 µM) of 100%, a kinase still bound, per cent of control (IKBKE (human); compound 1.0 µM) of 100% and a kinase still bound, per cent of control (CSNK1G1 (human); compound 1.0 µM) of 92%. It also gave a kinase still bound, per cent of control (STK16 (human); compound 1.0 µM) of 100%, a kinase still bound, per cent of control (PIK3C2B (human); compound 1.0 µM) of 96% and a kinase still bound, per cent of control (MELK (human); compound 1.0 µM) of 100%. For the same compound, the kinase still bound, per cent of control (PIK3CB (human); compound 1.0 µM) was 100%, the kinase still bound, per cent of control (DMPK (human); compound 1.0 µM) was 78% and the kinase still bound, per cent of control (PKMYT1 (human); compound 1.0 µM) was 100%. It also gave a kinase still bound, per cent of control (PRKG2 (human); compound 1.0 µM) of 100%, a kinase still bound, per cent of control (PRKCE (human); compound 1.0 µM) of 100% and a kinase still bound, per cent of control (PLK4 (human); compound 1.0 µM) of 97%. It also gave a kinase still bound, per cent of control (CDK4 CCND3 (human); compound 1.0 µM) of 100%, a kinase still bound, per cent of control (RIPK4 (human); compound 1.0 µM) of 100% and a kinase still bound, per cent of control (PRKX (human); compound 1.0 µM) of 82%. It also gave a kinase still bound, per cent of control ([3]; compound 1.0 µM) of 41%, a kinase still bound, per cent of control (SBK1 (human); compound 1.0 µM) of 100% and a kinase still bound, per cent of control (SIK2 (human); compound 1.0 µM) of 100%. It also gave a kinase still bound, per cent of control (PRKD1 (human); compound 1.0 µM) of 100%, a kinase still bound, per cent of control (PIK3CG (human); compound 1.0 µM) of 51% and a kinase still bound, per cent of control (PTK6 (human); compound 1.0 µM) of 100%. It also gave a kinase still bound, per cent of control (CDKL5 (human); compound 1.0 µM) of 21%, a kinase still bound, per cent of control (NEK3 (human); compound 1.0 µM) of 100% and a kinase still bound, per cent of control (NEK7 (human); compound 1.0 µM) of 100%.
In the case of `Cc1ccc(NC(=O)c2ccc(NC(=O)/C=C/CN(C)C)cc2)cc1Nc1nccc(-c2cccnc2)n1`, the kinase still bound, per cent of control (DAPK3 (human); compound 10.0 µM) is reported as 75%, the kinase still bound, per cent of control (AURKC (human); compound 10.0 µM) is reported as 67% and the kinase still bound, per cent of control ([1]; compound 10.0 µM) is reported as 100%. The kinase still bound, per cent of control (HIPK1 (human); compound 10.0 µM) was 44%, the kinase still bound, per cent of control (ACVRL1 (human); compound 10.0 µM) was 100% and the kinase still bound, per cent of control (RPS6KA4 KD2 (human); compound 10.0 µM) was 64%. The kinase still bound, per cent of control (CSNK1A1 (human); compound 10.0 µM) was 55%, the kinase still bound, per cent of control (MAP4K1 (human); compound 10.0 µM) was 90% and the kinase still bound, per cent of control ([2]; compound 10.0 µM) was 0%. It also gave a kinase still bound, per cent of control (RIOK1 (human); compound 10.0 µM) of 34%, a kinase still bound, per cent of control (PAK3 (human); compound 10.0 µM) of 68% and a kinase still bound, per cent of control (GRK1 (human); compound 10.0 µM) of 100%. For the same compound, the kinase still bound, per cent of control (AURKB (human); compound 10.0 µM) was 86%, the kinase still bound, per cent of control (ERN1 (human); compound 10.0 µM) was 98% and the kinase still bound, per cent of control (NEK6 (human); compound 10.0 µM) was 44%. The kinase still bound, per cent of control (CAMK1G (human); compound 10.0 µM) was 79%, the kinase still bound, per cent of control (AKT1 (human); compound 10.0 µM) was 100% and the kinase still bound, per cent of control (SIK1 (human); compound 10.0 µM) was 100%. It also gave a kinase still bound, per cent of control (PAK4 (human); compound 10.0 µM) of 84%, a kinase still bound, per cent of control (IKBKE (human); compound 10.0 µM) of 100% and a kinase still bound, per cent of control (CSNK1G1 (human); compound 10.0 µM) of 85%. The kinase still bound, per cent of control (STK16 (human); compound 10.0 µM) was 34%, the kinase still bound, per cent of control (PIK3C2B (human); compound 10.0 µM) was 93% and the kinase still bound, per cent of control (MELK (human); compound 10.0 µM) was 12%. It also gave a kinase still bound, per cent of control (PIK3CB (human); compound 10.0 µM) of 100%, a kinase still bound, per cent of control (DMPK (human); compound 10.0 µM) of 100% and a kinase still bound, per cent of control (PKMYT1 (human); compound 10.0 µM) of 79%. The kinase still bound, per cent of control (PRKG2 (human); compound 10.0 µM) was 74%, the kinase still bound, per cent of control (PRKCE (human); compound 10.0 µM) was 100% and the kinase still bound, per cent of control (PLK4 (human); compound 10.0 µM) was 41%. It also gave a kinase still bound, per cent of control (CDK4 CCND3 (human); compound 10.0 µM) of 100%, a kinase still bound, per cent of control (RIPK4 (human); compound 10.0 µM) of 97% and a kinase still bound, per cent of control (PRKX (human); compound 10.0 µM) of 43%. It also gave a kinase still bound, per cent of control ([3]; compound 10.0 µM) of 38%, a kinase still bound, per cent of control (SBK1 (human); compound 10.0 µM) of 77% and a kinase still bound, per cent of control (SIK2 (human); compound 10.0 µM) of 80%. The kinase still bound, per cent of control (PRKD1 (human); compound 10.0 µM) was 100%, the kinase still bound, per cent of control (PIK3CG (human); compound 10.0 µM) was 68% and the kinase still bound, per cent of control (PTK6 (human); compound 10.0 µM) was 85%. The kinase still bound, per cent of control (CDKL5 (human); compound 10.0 µM) was 100%, the kinase still bound, per cent of control (NEK3 (human); compound 10.0 µM) was 99% and the kinase still bound, per cent of control (NEK7 (human); compound 10.0 µM) was 20%.
